ChEMBL document CHEMBL1201862, “PubChem BioAssay data set” (2004)
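Tested at 5 concentrations; 48 h exposure; 96-well plates; endpoints linearly interpolated, else capped at highest concentration. GI50 is the concentration that inhibits growth by half.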 Activity calls are given as the source filed them. Rule as the data show it: active = GI50 up to about 1.1 µM and inactive = higher.

Assays:
Assay in all cases: NCI-60 cell line screen, 48 h
SK-MEL-5 = tested on: SK-MEL-5
LOX IMVI = tested on: LOX IMVI
UACC-257 = tested on: UACC-257
Malme-3M = tested on: Malme-3M
Hs-578T = tested on: Hs-578T
BT-549 = tested on: BT-549
PC-3 = tested on: PC-3
OVCAR-5 = tested on: OVCAR-5
786-0 = tested on: 786-0
DU-145 = tested on: DU-145
MDA-MB-231 = tested on: MDA-MB-231
SK-MEL-2 = tested on: SK-MEL-2
SK-MEL-28 = tested on: SK-MEL-28
M14 = tested on: M14
HT-29 = tested on: HT-29
HCC 2998 = tested on: HCC 2998
MOLT-4 = tested on: MOLT-4
SF-268 = tested on: SF-268
A549 = tested on: A549
NCI-H226 = tested on: NCI-H226
K562 = tested on: K562
IGROV-1 = tested on: IGROV-1
SF-295 = tested on: SF-295
RXF 393 = tested on: RXF 393
HOP-62 = tested on: HOP-62
RPMI-8226 = tested on: RPMI-8226
SNB-75 = tested on: SNB-75
U-251 = tested on: U-251
MDA-MB-435 = tested on: MDA-MB-435
A498 = tested on: A498
TK-10 = tested on: TK-10
NCI-H522 = tested on: NCI-H522
SN12C = tested on: SN12C
KM12 = tested on: KM12
SW-620 = tested on: SW-620
MCF7 = tested on: MCF7
HOP-92 = tested on: HOP-92
NCI-H23 = tested on: NCI-H23
COLO 205 = tested on: COLO 205
SK-OV-3 = tested on: SK-OV-3
UO-31 = tested on: UO-31
EKVX = tested on: EKVX
T47D = tested on: T47D
MDA-N = tested on: MDA-N
SR = tested on: SR
NCI/ADR-RES = tested on: NCI/ADR-RES
ACHN = tested on: ACHN
OVCAR-8 = tested on: OVCAR-8
OVCAR-4 = tested on: OVCAR-4
CAKI-1 = tested on: CAKI-1
SNB-19 = tested on: SNB-19
CCRF-CEM = tested on: CCRF-CEM
UACC-62 = tested on: UACC-62
HL-60 = tested on: HL-60
NCI-H460 = tested on: NCI-H460
HCT-116 = tested on: HCT-116
HCT-15 = tested on: HCT-15
SF-539 = tested on: SF-539
OVCAR-3 = tested on: OVCAR-3

C[C@]12[C@@H]3CC[C@H]1[C@@H](OC(=O)Nc1cc([N+](=O)[O-])cc([N+](=O)[O-])c1)C(=O)N2CC3
GI50 (SK-MEL-5): > 100 µM (inactive) | GI50 (LOX IMVI): > 100 µM (inactive) | GI50 (UACC-257): > 100 µM (inactive) | GI50 (Malme-3M): > 100 µM (inactive) | GI50 (Hs-578T): > 100 µM (inactive) | GI50 (BT-549): > 100 µM (inactive) | GI50 (PC-3): > 100 µM (inactive) | GI50 (OVCAR-5): > 100 µM (inactive) | GI50 (786-0): > 100 µM (inactive) | GI50 (DU-145): > 100 µM (inactive) | GI50 (MDA-MB-231): > 100 µM (inactive) | GI50 (SK-MEL-2): > 100 µM (inactive) | GI50 (SK-MEL-28): > 100 µM (inactive) | GI50 (M14): > 100 µM (inactive) | GI50 (HT-29): > 100 µM (inactive) | GI50 (HCC 2998): > 100 µM (inactive) | GI50 (MOLT-4): > 100 µM (inactive) | GI50 (SF-268): > 100 µM (inactive) | GI50 (A549): > 100 µM (inactive) | GI50 (NCI-H226): > 100 µM (inactive) | GI50 (K562): > 100 µM (inactive) | GI50 (IGROV-1): > 100 µM (inactive) | GI50 (SF-295): > 100 µM (inactive) | GI50 (RXF 393): > 100 µM (inactive) | GI50 (HOP-62): > 100 µM (inactive) | GI50 (RPMI-8226): > 100 µM (inactive) | GI50 (SNB-75): 19.6 µM (inactive) | GI50 (U-251): > 100 µM (inactive) | GI50 (MDA-MB-435): > 100 µM (inactive) | GI50 (A498): > 100 µM (inactive) | GI50 (TK-10): > 100 µM (inactive) | GI50 (NCI-H522): > 100 µM (inactive) | GI50 (SN12C): > 100 µM (inactive) | GI50 (KM12): > 100 µM (inactive) | GI50 (SW-620): > 100 µM (inactive) | GI50 (MCF7): > 100 µM (inactive) | GI50 (HOP-92): > 100 µM (inactive) | GI50 (NCI-H23): > 100 µM (inactive) | GI50 (COLO 205): > 100 µM (inactive) | GI50 (SK-OV-3): > 100 µM (inactive) | GI50 (UO-31): > 100 µM (inactive) | GI50 (EKVX): > 100 µM (inactive) | GI50 (T47D): > 100 µM (inactive) | GI50 (MDA-N): > 100 µM (inactive) | GI50 (SR): > 100 µM (inactive) | GI50 (NCI/ADR-RES): > 100 µM (inactive) | GI50 (ACHN): > 100 µM (inactive) | GI50 (OVCAR-8): > 100 µM (inactive) | GI50 (OVCAR-4): > 100 µM (inactive) | GI50 (CAKI-1): > 100 µM (inactive) | GI50 (SNB-19): > 100 µM (inactive) | GI50 (CCRF-CEM): > 100 µM (inactive) | GI50 (UACC-62): > 100 µM (inactive) | GI50 (HL-60): 62.8 µM (inactive) | GI50 (NCI-H460): > 100 µM (inactive) | GI50 (HCT-116): > 100 µM (inactive) | GI50 (HCT-15): > 100 µM

Nc1cccc(/C=C/C(=O)N2CCN(CCOC(c3ccccc3)c3ccccc3)CC2)c1
GI50 (SK-MEL-5): 15.9 µM (inactive) | GI50 (LOX IMVI): 17.9 µM (inactive) | GI50 (UACC-257): 17.7 µM (inactive) | GI50 (SF-539): 17.3 µM (inactive) | GI50 (Malme-3M): 16.7 µM (inactive) | GI50 (Hs-578T): 21 µM (inactive) | GI50 (BT-549): 15 µM (inactive) | GI50 (PC-3): 14.7 µM (inactive) | GI50 (OVCAR-5): 19.1 µM (inactive) | GI50 (786-0): 16.7 µM (inactive) | GI50 (DU-145): 15.1 µM (inactive) | GI50 (MDA-MB-231): 15.7 µM (inactive) | GI50 (SK-MEL-2): 16.2 µM (inactive) | GI50 (SK-MEL-28): 15 µM (inactive) | GI50 (M14): 13.2 µM (inactive) | GI50 (HT-29): 8.2 µM (inactive) | GI50 (MOLT-4): 5.42 µM (inactive) | GI50 (SF-268): 17.4 µM (inactive) | GI50 (A549): 16.6 µM (inactive) | GI50 (NCI-H226): 20.9 µM (inactive) | GI50 (K562): 9.98 µM (inactive) | GI50 (IGROV-1): 18.2 µM (inactive) | GI50 (SF-295): 17.3 µM (inactive) | GI50 (RXF 393): 15.3 µM (inactive) | GI50 (HOP-62): 17.7 µM (inactive) | GI50 (RPMI-8226): 10.5 µM (inactive) | GI50 (SNB-75): 13.1 µM (inactive) | GI50 (U-251): 15.8 µM (inactive) | GI50 (MDA-MB-435): 16.3 µM (inactive) | GI50 (A498): 17.5 µM (inactive) | GI50 (TK-10): 15 µM (inactive) | GI50 (OVCAR-3): 16.6 µM (inactive) | GI50 (NCI-H522): 15 µM (inactive) | GI50 (SN12C): 17.5 µM (inactive) | GI50 (KM12): 17 µM (inactive) | GI50 (SW-620): 15.7 µM (inactive) | GI50 (MCF7): 16.8 µM (inactive) | GI50 (HOP-92): 12.9 µM (inactive) | GI50 (NCI-H23): 18.5 µM (inactive) | GI50 (COLO 205): 12.7 µM (inactive) | GI50 (SK-OV-3): 16.5 µM (inactive) | GI50 (UO-31): 16.9 µM (inactive) | GI50 (EKVX): 18.7 µM (inactive) | GI50 (T47D): 13.1 µM (inactive) | GI50 (MDA-N): 17.8 µM (inactive) | GI50 (SR): 14.4 µM (inactive) | GI50 (NCI/ADR-RES): 17.3 µM (inactive) | GI50 (ACHN): 16.1 µM (inactive) | GI50 (OVCAR-8): 17.8 µM (inactive) | GI50 (OVCAR-4): 12.4 µM (inactive) | GI50 (CAKI-1): 18.6 µM (inactive) | GI50 (SNB-19): 17 µM (inactive) | GI50 (CCRF-CEM): 10 µM (inactive) | GI50 (UACC-62): 16.1 µM (inactive) | GI50 (HL-60): 11.2 µM (inactive) | GI50 (NCI-H460): 16.9 µM (inactive) | GI50 (HCT-116): 15.5 µM (inactive) | GI50 (HCT-15): 16.3 µM
